US20240400584A1, “COMPOUNDS AND METHODS FOR MODULATING SPLICING” (REMIX THERAPEUTICS INC., priority 2021, published 2024)

How the values were obtained:
MYB = test: Gene panel canonical junction qPCR assay, MYB CJ mRNA (Table 7); type: cell-based; conditions: Homo sapiens, read-out: MYB CJ mRNA decrease IC50
How it was run: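 A673/K562 cells + cpd → lysate → cDNA → qPCR, CY5 5′ nuclease probe set overlapping canonical junction. Normalized to GAPDH/GUSB/PPIA and DMSO via ΔΔCt, RQ → % response over fixed ΔCt window. IC50 = 50% CJ decrease, 4PL fit.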

HTT = test: RT-qPCR splicing assay, HTT AJ/CJ mRNA; type: cell-based, human; conditions: Homo sapiens, 24 h, A673 or K562 cells; for IC50: decrease in canonical junction mRNA; for AC50: increase in alternative junction mRNA
How it was run: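 A673 or K562 cells were treated for 24 h at 37° C with an 11-point 3-fold compound series (top 10 uM, DMSO ≤0.25%). Lysates underwent RT-qPCR for the canonical (CJ) and alternative-exon (AJ) junctions, normalized to GAPDH, GUSB or PPIA, then to DMSO (ΔΔCt), giving RQ and percentage response.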

Row | IC50 (MYB) [nM] | IC50 (HTT) [nM] | Compound | AC50 (HTT) [nM]
1 | 1000 to 10000 | 100 to 1000 | COc1cc(-c2ccc3c(c2)COc2nc(N4CCC(N(C)C)C4)ccc2-3)cnn1 (stereo not drawn) [Compound 306, 1-[8-(6-methoxypyridazin-4-yl)-6H-isochromeno[3,4-b]pyridin-3-yl]-N,N-dimethylpyrrolidin-3-amine] | 1000 to 10000
2 | 1000 to 10000 | 100 to 1000 | COc1cc(-c2ccc3c(c2)COc2nc(N4CCC(N(C)C5CCC5)C4)ccc2-3)cnn1 (stereo not drawn) [Compound 307, N-cyclobutyl-1-[8-(6-methoxypyridazin-4-yl)-6H-isochromeno[3,4-b]pyridin-3-yl]-N-methylpyrrolidin-3-amine] | 100 to 1000
